Experimental data published in patent US20230092890A1, “1, 3, 4-Oxadiazole derivative compounds as histone deacetylase 6 inhibitor, and the pharmaceutical composition comprising the same” (Chong Kun Dang Pharmaceutical Corp., priority 2019, published 2023).

Assays:
HDAC6 human recombinant = molecular target: T1, HDAC6 human recombinant (Homo sapiens, UniProt Q9UBN7); assay: HDAC enzyme activity inhibition (in vitro), HDAC6 assay; assay type: biochemical; conditions: samples at 0.1, 1, 10, 100 and 1000 nM; 37° C. 60 minutes; fluorescence Ex 390, Em 460; read-out: HDAC6 IC50
T1 construct: purchased Calbiochem 382180
T1 sequence (Q9UBN7 1-1215): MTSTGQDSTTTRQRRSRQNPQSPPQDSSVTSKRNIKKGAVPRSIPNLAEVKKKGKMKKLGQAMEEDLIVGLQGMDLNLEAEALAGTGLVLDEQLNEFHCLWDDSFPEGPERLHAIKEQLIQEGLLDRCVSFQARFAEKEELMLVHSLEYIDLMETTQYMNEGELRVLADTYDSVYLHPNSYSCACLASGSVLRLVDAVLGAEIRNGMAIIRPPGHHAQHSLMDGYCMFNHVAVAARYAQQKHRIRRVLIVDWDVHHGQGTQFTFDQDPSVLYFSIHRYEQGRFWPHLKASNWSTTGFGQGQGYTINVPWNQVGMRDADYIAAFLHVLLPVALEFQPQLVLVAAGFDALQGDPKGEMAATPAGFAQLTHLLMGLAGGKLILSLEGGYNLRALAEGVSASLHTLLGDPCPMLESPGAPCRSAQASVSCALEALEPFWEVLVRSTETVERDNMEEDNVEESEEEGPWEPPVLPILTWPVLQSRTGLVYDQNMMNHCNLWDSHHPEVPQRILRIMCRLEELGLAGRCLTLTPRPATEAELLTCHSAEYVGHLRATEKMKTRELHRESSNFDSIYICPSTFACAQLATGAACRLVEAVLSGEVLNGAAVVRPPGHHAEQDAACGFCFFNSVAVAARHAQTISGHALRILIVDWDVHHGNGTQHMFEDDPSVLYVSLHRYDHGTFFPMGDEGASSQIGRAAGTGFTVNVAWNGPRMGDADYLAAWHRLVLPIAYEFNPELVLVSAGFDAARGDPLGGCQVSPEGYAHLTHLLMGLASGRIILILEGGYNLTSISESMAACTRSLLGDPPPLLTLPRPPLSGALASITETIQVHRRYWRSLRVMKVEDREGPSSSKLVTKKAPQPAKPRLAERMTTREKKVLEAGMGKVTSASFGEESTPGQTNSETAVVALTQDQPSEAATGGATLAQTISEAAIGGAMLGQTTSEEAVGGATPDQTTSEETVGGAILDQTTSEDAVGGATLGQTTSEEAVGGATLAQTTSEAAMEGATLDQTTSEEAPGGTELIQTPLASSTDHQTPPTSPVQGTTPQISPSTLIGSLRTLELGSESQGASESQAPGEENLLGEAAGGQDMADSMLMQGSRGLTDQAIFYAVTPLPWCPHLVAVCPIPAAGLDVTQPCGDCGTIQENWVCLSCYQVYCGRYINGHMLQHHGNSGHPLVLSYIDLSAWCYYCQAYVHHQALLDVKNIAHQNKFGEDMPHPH
In short: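 Fluorescence (Ex 390, Em 460) read after a 37° C, 60 min enzyme reaction and a further 30 min developer step at 37° C. Uses recombinant human HDAC6; HDAC1 arm dosed at 100, 1000, 10000 nM.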

HDAC1 = molecular target: T2, HDAC1 (Homo sapiens, UniProt Q13547); assay: HDAC enzyme activity inhibition (in vitro), HDAC1 Fluorimetric Drug Discovery Assay Kit; assay type: biochemical; conditions: samples at 100, 1000 and 10000 nM; 37° C. 60 minutes; fluorescence Ex 390, Em 460; read-out: HDAC1 IC50
T2 construct: purchased Enzolifesciences BML-AK511
T2 sequence (Q13547 whole entry): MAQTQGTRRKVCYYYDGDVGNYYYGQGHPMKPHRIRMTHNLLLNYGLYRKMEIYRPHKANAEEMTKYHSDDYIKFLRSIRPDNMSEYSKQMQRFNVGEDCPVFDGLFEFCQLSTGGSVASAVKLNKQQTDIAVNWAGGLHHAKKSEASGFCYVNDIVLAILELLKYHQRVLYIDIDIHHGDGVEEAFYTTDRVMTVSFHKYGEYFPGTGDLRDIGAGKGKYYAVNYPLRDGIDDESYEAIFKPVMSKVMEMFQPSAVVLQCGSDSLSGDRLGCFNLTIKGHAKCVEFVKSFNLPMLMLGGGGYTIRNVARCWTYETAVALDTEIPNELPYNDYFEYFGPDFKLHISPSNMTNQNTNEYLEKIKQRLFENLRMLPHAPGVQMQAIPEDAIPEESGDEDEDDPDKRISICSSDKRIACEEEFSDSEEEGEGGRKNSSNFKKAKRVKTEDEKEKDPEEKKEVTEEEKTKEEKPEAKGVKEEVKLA
In short: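 Fluorimetric read-out (Ex 390, Em 460) after a 60 min 37° C enzyme reaction and 30 min 37° C developer step. Tested levels: 0.1-1000 nM (0.1, 1, 10, 100, 1000) on recombinant human HDAC6; 100, 1000 and 10000 nM on HDAC1 kit enzyme.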

SMILES | IC50 (HDAC6 human recombinant) | IC50 (HDAC1)
Cn1c(=O)n(Cc2ccc(-c3nnc(C(F)F)o3)cn2)c2cc(F)c(N3CCN(C(=O)CO)CC3)cc21 [Compound 266, 1-((5-(5-(difluoromethyl)-1,3,4-oxadiazole-2-yl)pyridine-2-yl)methyl)-6-fluoro-5-(4-(2-hydroxyacetyl)piperazine-1-yl)-3-methyl-1,3-dihydro-2H-benzo[d]imidazole-2-one] | 39 nM | > 10000 nM
O=c1n(CCN2CCOCC2)c2cc(-c3cccnc3)c(F)cc2n1Cc1ccc(-c2nnc(C(F)F)o2)cn1 [Compound 267, 1-((5-(5-(difluoromethyl)-1,3,4-oxadiazole-2-yl)pyridine-2-yl)methyl)-6-fluoro-3-(2-morpholinoethyl)-5-(pyridine-3-yl)-1,3-dihydro-2H-benzo[d]imidazole-2-one] | 42 nM | > 10000 nM
O=c1n(CCN2CCOCC2)c2cc(-c3cccc4[nH]ccc34)c(F)cc2n1Cc1ccc(-c2nnc(C(F)F)o2)cn1 [Compound 269, 1-((5-(5-(difluoromethyl)-1,3,4-oxadiazole-2-yl)pyridine-2-yl)methyl)-6-fluoro-5-(1H-indole-4-yl)-3-(2-morpholinoethyl)-1,3-dihydro-2H-benzo[d]imidazole-2-one] | 6 nM | > 10000 nM
CN1CC[C@H](n2c(=O)n(Cc3ccc(-c4nnc(C(F)F)o4)cn3)c3cc(F)c(-c4cccc5[nH]ccc45)cc32)C1 [Compound 270, (S)-1-((5-(5-(difluoromethyl)-1,3,4-oxadiazole-2-yl)pyridine-2-yl)methyl)-6-fluoro-5-(1H-indole-4-yl)-3-(1-methylpyrrolidine-3-yl)-1,3-dihydro-2H-benzo[d]imidazole-2-one] | 19 nM | > 10000 nM
CN1CC[C@@H](n2c(=O)n(Cc3ccc(-c4nnc(C(F)F)o4)cn3)c3cc(F)c(-c4ccncc4)cc32)C1 [Compound 272, (R)-1-((5-(5-(difluoromethyl)-1,3,4-oxadiazole-2-yl)pyridine-2-yl)methyl)-6-fluoro-3-(1-methylpyrrolidine-3-yl)-5-(pyridine-4-yl)-1,3-dihydro-2H-benzo[d]imidazole-2-one] | 29 nM | > 10000 nM
CN1CCC[C@@H](n2c(=O)n(Cc3ccc(-c4nnc(C(F)F)o4)cn3)c3cc(F)c(-c4cccnc4)cc32)C1 [Compound 274, (R)-1-((5-(5-(difluoromethyl)-1,3,4-oxadiazole-2-yl)pyridine-2-yl)methyl)-6-fluoro-3-(1-methylpiperidine-3-yl)-5-(pyridine-3-yl)-1,3-dihydro-2H-benzo[d]imidazole-2-one] | 12 nM | > 10000 nM
O=c1oc2cc(-c3cccc4[nH]ccc34)c(F)cc2n1Cc1ccc(-c2nnc(C(F)F)o2)cn1 [Compound 279, 3-((5-(5-(difluoromethyl)-1,3,4-oxadiazole-2-yl)pyridine-2-yl)methyl)-5-fluoro-6-(1H-indole-4-yl)benzo[d]oxazole-2(3H)-one] | 15 nM | > 10000 nM
O=c1n(Cc2ccc(-c3nnc(C(F)F)o3)cn2)c2ccc(-c3cccnc3)cc2n1C1CCN(C2COC2)CC1 [Compound 280, 1-((5-(5-(difluoromethyl)-1,3,4-oxadiazole-2-yl)pyridine-2-yl)methyl)-3-(1-(oxetan-3-yl)piperidine-4-yl)-5-(pyridine-3-yl)-1,3-dihydro-2H-benzo[d]imidazole-2-one] | 18 nM | > 10000 nM

More lines, in order of falling IC50 (HDAC6 human recombinant), values ahead:

IC50 (HDAC6 human recombinant) | IC50 (HDAC1) | SMILES
61 nM | > 10000 nM | Cn1c(=O)n(Cc2ccc(-c3nnc(C(F)F)o3)cn2)c2cc(F)c(N3CCN(C4COC4)CC3)cc21 [Compound 264, 1-((5-(5-(difluoromethyl)-1,3,4-oxadiazole-2-yl)pyridine-2-yl)methyl)-6-fluoro-3-methy 1-5-(4-(oxetan-3-yl)piperazine-1-yl)-1,3-dihydro-2H-benzo[d]imidazole-2-one]
59 nM | > 10000 nM | Cn1c(=O)n(Cc2ccc(-c3nnc(C(F)F)o3)cn2)c2cc(F)c(N3CCN(CC(F)(F)F)CC3)cc21 [Compound 263, 1-((5-(5-(difluoromethyl)-1,3,4-oxadiazole-2-yl)pyridine-2-yl)methyl)-6-fluoro-3-methy 1-5-(4-(2,2,2-trifluoroethyl)piperazine-1-yl)-1,3-dihydro-2H-benzo[d]imidazole-2-one]
46 nM | > 10000 nM | O=c1oc2cc(Cl)ccc2n1Cc1ccc(-c2nnc(C(F)F)o2)cn1 [Compound 265, 6-chloro-3-((5-(5-(difluoromethyl)-1,3,4-oxadiazole-2-yl)pyridine-2-yl)methyl)benzo[d]oxazole-2(3H)-one]
27 nM | > 10000 nM | O=c1n(Cc2ccc(-c3nnc(C(F)F)o3)cn2)c2cc(Cl)ccc2n1C1CCN(C2COC2)CC1 [Compound 271, 5-chloro-3-((5-(5-(difluoromethyl)-1,3,4-oxadiazole-2-yl)pyridine-2-yl)methyl)-1-(1-(oxetan-3-yl)piperidine-4-yl)-1,3-dihydro-2H-benzo[d]imidazole-2-one]
21 nM | > 10000 nM | O=c1oc2cc(-c3cccnc3)c(F)cc2n1Cc1ccc(-c2nnc(C(F)F)o2)cn1 [Compound 277, 3-((5-(5-(difluoromethyl)-1,3,4-oxadiazole-2-yl)pyridine-2-yl)methyl)-5-fluoro-6-(pyridine-3-yl)benzo[d]oxazole-2(3H)-one]
20 nM | > 10000 nM | CN1CC[C@H](n2c(=O)n(Cc3ccc(-c4nnc(C(F)F)o4)cn3)c3cc(F)c(-c4cccnc4)cc32)C1 [Compound 268, (S)-1-((5-(5-(difluoromethyl)-1,3,4-oxadiazole-2-yl)pyridine-2-yl)methyl)-6-fluoro-3-(1-methylpyrrolidine-3-yl)-5-(pyridine-3-yl)-1,3-dihydro-2H-benzo[d]imidazole-2-one]
17 nM | > 10000 nM | O=c1oc2cc(-c3ccncc3)c(F)cc2n1Cc1ccc(-c2nnc(C(F)F)o2)cn1 [Compound 278, 3-((5-(5-(difluoromethyl)-1,3,4-oxadiazole-2-yl)pyridine-2-yl)methyl)-5-fluoro-6-(pyridine-4-yl)benzo[d]oxazole-2(3H)-one]
16 nM | > 10000 nM | CN1CCC[C@@H](n2c(=O)n(Cc3ccc(-c4nnc(C(F)F)o4)cn3)c3cc(F)c(-c4ccncc4)cc32)C1 [Compound 275, (R)-1-((5-(5-(difluoromethyl)-1,3,4-oxadiazole-2-yl)pyridine-2-yl)methyl)-6-fluoro-3-(1-methylpiperidine-3-yl)-5-(pyridine-4-yl)-1,3-dihydro-2H-benzo[d]imidazole-2-one]
15 nM | > 10000 nM | CN1CCC[C@@H](n2c(=O)n(Cc3ccc(-c4nnc(C(F)F)o4)cn3)c3cc(F)c(-c4cccc5[nH]ccc45)cc32)C1 [Compound 276, (R)-1-((5-(5-(difluoromethyl)-1,3,4-oxadiazole-2-yl)pyridine-2-yl)methyl)-6-fluoro-5-(1H-indole-4-yl)-3-(1-methylpiperidine-3-yl)-1,3-dihydro-2H-benzo[d]imidazole-2-one]
14 nM | > 10000 nM | CN1CC[C@@H](n2c(=O)n(Cc3ccc(-c4nnc(C(F)F)o4)cn3)c3cc(F)c(-c4cccc5[nH]ccc45)cc32)C1 [Compound 273, (R)-1-((5-(5-(difluoromethyl)-1,3,4-oxadiazole-2-yl)pyridine-2-yl)methyl)-6-fluoro-5-(1H-indole-4-yl)-3-(1-methylpyrrolidine-3-yl)-1,3-dihydro-2H-benzo[d]imidazole-2-one]
